Laboratory results: publication PMC7698842, “Lanostane Triterpenoid Metabolites from a Penares sp. Marine Sponge Protect Neuro-2a Cells against Paraquat Neurotoxicity” (Molecules, 2020)

How the values were obtained:
[1] = system: histamine release induced by anti-IgE; details: cited from earlier work
[2] = system: ROS level in PQ-treated Neuro-2a cells; experiment: ROS level analysis in PQ-treated Neuro-2a cells (H2DCFDA); format: cell-based, mouse; details: tested at 1 and 10 μM, PQ 500 µM 1 h
Method: The cells (1 × 10^4 cells/well of a 96-well plate) were incubated with compound solutions (1 and 10 µM) during 1 h. Then, PQ was added to cell suspension to a resulting concentration of 500 µM for incubation during 1 h. Cells incubated without PQ and compounds and with PQ alone were used as positive and negative controls, respectively. The 20 µL of 2,7-dichlorodihydrofluorescein diacetate solution (H2DCFDA, Molecular Probes, Eugene, OR, USA) was added to each well (10 µM, final concentration) and the plate was incubated for an additional 10 min at 37 °C. The intensity of dichlorofluorescin fluorescence was measured with a PHERAstar FS plate reader (BMG Labtech, Ortenberg, Germany) at λex = 485 nm and λem = 518 nm. The data were processed by MARS Data Analysis v. 3.01R2 (BMG Labtech, Ortenberg, Germany). The results were presented as percent of positive control data.

[3] = system: mitochondrial membrane potential in PQ-treated Neuro-2a cells; experiment: Mitochondrial membrane potential detection (TMRM) in PQ-treated Neuro-2a cells; format: cell-based, mouse; details: compound 10 μM, PQ 500 µM 1 h
Method: The cells (1 × 10^4 cells/well of a 96-well plate) were incubated with compound solutions (1 and 10 µM) during 1 h. Then, PQ was added to cell suspension to a resulting concentration of 500 µM for incubation during 1 h. Cells incubated without PQ and compounds and with PQ alone were used as positive and negative controls, respectively. The tetramethylrhodamine methyl (TMRM) (Sigma-Aldrich, St. Louis, MO, USA) solution at 500 nM was added in each well and cells were incubated for 30 min at 37 °C. The intensity of fluorescence was measured with a PHERAstar FS plate reader (BMG Labtech, Ortenberg, Germany) at λex = 540 nm and λem = 590 nm. The data were processed by MARS Data Analysis v. 3.01R2 (BMG Labtech, Ortenberg, Germany). The results were presented as percent of positive control data.

[4] = Cytotoxicity toward Neuro-2a cells (MTT assay); format: cell-based, mouse; details: mouse, Neuro-2a neuroblastoma cells, 24 h
Method: The cells of mouse neuroblastoma cell line Neuro-2a (ATCC® CCL-131™; American Type Culture Collection, Manassas, VA, USA) were cultured in Dulbecco’s modified Eagle’s medium (DMEM) containing 10% fetal bovine serum (Biolot, St. Petersburg, Russia) and 1% penicillin/streptomycin (Biolot, St. Petersburg, Russia) at 37 °C in a humidified atmosphere with 5% (v/v) CO2. Initially, cells were incubated in cultural flasks until sub-confluent (~80%). For testing, Neuro-2a cells were seeded in 96- or 6-well plates and experiments were started after 24 h.
The cells (1 × 10^4 cells/well of a 96-well plate) were incubated with different concentrations of studied compounds during 24 h. After that, cell viability was determined by the MTT (3-(4,5-dimethylthiazol-2-yl)-2,5-diphenyltetrazolium bromide) method according to the manufacturer’s instructions (Sigma-Aldrich, St. Louis, MO, USA). Absorbance of the converted formazan was measured using a Multiskan FC microplate photometer (Thermo Scientific, Waltham, MA, USA) at λ = 570 nm. The results were presented as percent of control data, and concentration of cell viability inhibition on 50% (IC50) was calculated.

For CC(C)=CCC[C@@H](C)[C@H]1CC[C@@]2(C(=O)O)C3=C(CC[C@]12C)[C@@]1(C)CCC(=O)C(C)(C)[C@@H]1CC3 [Compound 4, penasterone], the “inhibition of histamine release induced by anti-IgE” value [1] is given as “inhibitors of histamine release”, the “concentrations at which ROS content in PQ-treated cells was reduced” value [2] is given as “effective at concentrations of 1 and 10 μM” and the “increase of intensity of TMRM fluorescence (PQ-induced mitochondrial dysfunction diminished)” value [3] is given as 28%. For the same compound, the activity at 24 h, 10 µM ([4]; Neuro-2a cell viability, 10 μM, read-out: Cytotoxicity (MTT Assay) % of Control at 10 μM) was 95.3 ± 2.7% and the IC50 at 24 h ([4]; Neuro-2a cells) was greater than 100 µM.
